In US20230278972A1, “SUBSTITUTED HALOALKYL SULFONANILIDE HERBICIDES” (FMC Corporation, priority 2020, published 2023):

What was measured:
Type in all cases: in vivo
[1] = system: galium (catchweed bedstraw, Galium aparine); assay: Test A1 postemergence, galium; details: 0 to 100 scale (0 no effect, 100 complete control); for Galium plant response rating: 31 g ai/ha, postemergence; for Plant response rating, Galium: Postemergence, 125 g ai/ha, 10 days
Description: (§1) Seeds of plant species selected from, blackgrass (Alopecurus myosuroides), corn (Zea mays), Foxtail, Giant (giant foxtail, Setaria faberi), goosegrass (Eleusine indica), kochia (Bassia scoparia), Oat, Wild (wild oat, Avena fatua), Pigweed, Palmer (palmer amaranth, palmer pigweed, Amaranthus palmeri), ragweed (common ragweed, Ambrosia artemisiifolia), Ryegrass, Italian (Italian ryegrass, Lolium multiflorum), soybean (Glycine max), and wheat (Triticum aestivum) were planted into a blend of loam soil and sand and treated preemergence with a directed soil spray using test chemicals formulated in a non-phytotoxic solvent mixture which included a surfactant. At the same time, plants selected from these crop and weed species and also galium (catchweed bedstraw, Galium aparine) and horseweed (Erigeron canadensis) were planted in pots containing the same blend of loam soil and sand and treated with postemergence applications of test chemicals formulated in the same manner. Plants ranged in height from 2 to 10 cm and were in the one- to two-leaf stage for the postemergence treatment. […] A dash (-) response means no test result.

[2] = system: Oat, Wild (wild oat, Avena fatua); assay: Test A1 postemergence, Oat, Wild; details: 0 to 100 scale (0 no effect, 100 complete control); for Oat, Wild plant response rating: 31 g ai/ha, postemergence; for Plant response rating, Oat, Wild: Postemergence, 125 g ai/ha, 10 days
Description: as §1

[3] = system: Foxtail, Giant (giant foxtail, Setaria faberi); assay: Test A1 postemergence, Foxtail, Giant; details: 0 to 100 scale (0 no effect, 100 complete control); for Foxtail, Giant plant response rating: 31 g ai/ha, postemergence; for Plant response rating, Foxtail, Giant: Postemergence, 125 g ai/ha, 10 days
Description: as §1

[4] = system: Oat, Wild (wild oat, Avena fatua); assay: Test A1 preemergence, Oat, Wild
Description: as §1

[5] = system: horseweed (Erigeron canadensis); assay: Test A1 postemergence, horseweed; details: 0 to 100 scale (0 no effect, 100 complete control); for Horseweed plant response rating: 31 g ai/ha, postemergence
Description: as §1

corn (Zea mays) [6] = assay: Test A1 preemergence, corn
Description: as §1

[7] = system: ragweed (common ragweed, Ambrosia artemisiifolia); assay: Test A1 postemergence, ragweed; details: 0 to 100 scale (0 no effect, 100 complete control); for Ragweed plant response rating: 31 g ai/ha, postemergence; for Plant response rating, Ragweed: Postemergence, 125 g ai/ha, 10 days
Description: as §1

[8] = system: Pigweed, Palmer (palmer amaranth, palmer pigweed, Amaranthus palmeri); assay: Test A1 preemergence, Pigweed, Palmer
Description: as §1

[9] = system: wheat (Triticum aestivum); assay: Test A1 preemergence, wheat
Description: as §1

[10] = system: ragweed (common ragweed, Ambrosia artemisiifolia); assay: Test A1 preemergence, ragweed
Description: as §1

[11] = system: Pigweed, Palmer (palmer amaranth, palmer pigweed, Amaranthus palmeri); assay: Test A1 postemergence, Pigweed, Palmer; details: 0 to 100 scale (0 no effect, 100 complete control); for Pigweed, Palmer plant response rating: 31 g ai/ha, postemergence; for Plant response rating, Pigweed, Palmer: Postemergence, 125 g ai/ha, 10 days
Description: as §1

[12] = system: Foxtail, Giant (giant foxtail, Setaria faberi); assay: Test A1 preemergence, Foxtail, Giant
Description: as §1

[13] = system: barnyardgrass (Echinochloa crus-galli); assay: Test B1 flooded paddy test, barnyardgrass; details: 250 g ai/ha, Flood, applied to paddy water, 2-leaf stage, visually evaluated after 10 to 14 days
Description: (§2) A dash (-) response means no test result.

[14] = system: goosegrass (Eleusine indica); assay: Test A1 preemergence, goosegrass
Description: as §1

kochia (Bassia scoparia) [15] = assay: Test A1 postemergence, kochia; details: 0 to 100 scale (0 no effect, 100 complete control); for Kochia plant response rating: 31 g ai/ha, postemergence; for Plant response rating, Kochia: Postemergence, 125 g ai/ha, 10 days
Description: as §1

kochia (Bassia scoparia) [16] = assay: Test A1 preemergence, kochia
Description: as §1

rice (Oryza sativa) = assay: Test B1 flooded paddy test, rice; details: 250 g ai/ha, Flood, applied to paddy water, 2-leaf stage, visually evaluated after 10 to 14 days
Description: as §2

[17] = system: wheat (Triticum aestivum); assay: Test A1 postemergence, wheat; details: 0 to 100 scale (0 no effect, 100 complete control); for Wheat plant response rating: 31 g ai/ha, postemergence; for Plant response rating, Wheat: Postemergence, 125 g ai/ha, 10 days
Description: as §1

[18] = system: Ryegrass, Italian (Italian ryegrass, Lolium multiflorum); assay: Test A1 postemergence, Ryegrass, Italian; details: 0 to 100 scale (0 no effect, 100 complete control); for Ryegrass, Italian plant response rating: 31 g ai/ha, postemergence; for Plant response rating, Ryegrass, Italian: Postemergence, 125 g ai/ha, 10 days
Description: as §1

corn (Zea mays) [19] = assay: Test A1 postemergence, corn; details: 0 to 100 scale (0 no effect, 100 complete control); for Corn plant response rating: 31 g ai/ha, postemergence; for Plant response rating, Corn: Postemergence, 125 g ai/ha, 10 days
Description: as §1

[20] = system: ducksalad (Heteranthera limosa); assay: Test B1 flooded paddy test, ducksalad; details: 250 g ai/ha, Flood, applied to paddy water, 2-leaf stage, visually evaluated after 10 to 14 days
Description: as §2

soybean (Glycine max) [21] = assay: Test A1 preemergence, soybean
Description: as §1

[22] = system: goosegrass (Eleusine indica); assay: Test A1 postemergence, goosegrass; details: 0 to 100 scale (0 no effect, 100 complete control); for Goosegrass plant response rating: 31 g ai/ha, postemergence; for Plant response rating, Goosegrass: Postemergence, 125 g ai/ha, 10 days
Description: as §1

soybean (Glycine max) [23] = assay: Test A1 postemergence, soybean; details: 0 to 100 scale (0 no effect, 100 complete control); for Soybean plant response rating: 31 g ai/ha, postemergence; for Plant response rating, Soybean: Postemergence, 125 g ai/ha, 10 days
Description: as §1

[24] = system: Ryegrass, Italian (Italian ryegrass, Lolium multiflorum); assay: Test A1 preemergence, Ryegrass, Italian
Description: as §1

[25] = system: blackgrass (Alopecurus myosuroides); assay: Test A1 preemergence, blackgrass
Description: as §1

[26] = system: blackgrass (Alopecurus myosuroides); assay: Test A1 postemergence, blackgrass; details: 0 to 100 scale (0 no effect, 100 complete control)
Description: as §1

[27] = 31 g ai/ha, 0 to 100 scale (0 no effect, 100 complete control)
[28] = 125 g ai/ha, 0 to 100 scale, 0 no effect, 100 complete control
[29] = Postemergence, 125 g ai/ha, 10 days
[30] = 125 g ai/ha, 0 to 100 scale (0 no effect, 100 complete control)

## Cc1cc(Cl)c(NS(=O)(=O)C(F)(F)F)cc1N1CC2(CCCCC2)OC1=O [Compound 394]
[1]
  Galium plant response rating: 100
  Plant response rating, Galium: 100
[2]
  Oat, Wild plant response rating: 0
  Plant response rating, Oat, Wild: 0
[3]
  Foxtail, Giant plant response rating: 0
  Plant response rating, Foxtail, Giant: 50
[4]; [27]
  Plant response rating, Oat, Wild: 20
[4]; [28]
  Plant response rating, Oat, Wild: 90
[5]
  Horseweed plant response rating: 30
[5]; [29]
  Plant response rating, Horseweed: 80
Corn (Zea mays) [6]; [27]
  Plant response rating, Corn: 0
Corn (Zea mays) [6]; [28]
  Plant response rating, Corn: 20
[7]
  Ragweed plant response rating: 90
  Plant response rating, Ragweed: 90
[8]; [27]
  Plant response rating, Pigweed, Palmer: 20
[8]; [28]
  Plant response rating, Pigweed, Palmer: 90
[9]; [27]
  Plant response rating, Wheat: 30
[9]; [28]
  Plant response rating, Wheat: 70
[10]; [27]
  Plant response rating, Ragweed: 40
[10]; [28]
  Plant response rating, Ragweed: 90
[11]
  Pigweed, Palmer plant response rating: 50
  Plant response rating, Pigweed, Palmer: 50
[12]; [27]
  Plant response rating, Foxtail, Giant: 90
[12]; [28]
  Plant response rating, Foxtail, Giant: 100
[13]
  Plant response rating, Barnyardgrass (0 to 100 scale, 0 is no effect, 100 is complete control): 0
[14]; [27]
  Plant response rating, Goosegrass: 80
[14]; [28]
  Plant response rating, Goosegrass: 100
Kochia (Bassia scoparia) [15]
  Kochia plant response rating: 40
  Plant response rating, Kochia: 80
Kochia (Bassia scoparia) [16]; [27]
  Plant response rating, Kochia: 30
Kochia (Bassia scoparia) [16]; [28]
  Plant response rating, Kochia: 60
Rice (Oryza sativa)
  Plant response rating, Rice (0 to 100 scale, 0 is no effect, 100 is complete control): 0
[17]
  Wheat plant response rating: 10
  Plant response rating, Wheat: 40
[18]
  Ryegrass, Italian plant response rating: 20
  Plant response rating, Ryegrass, Italian: 40
Corn (Zea mays) [19]
  Corn plant response rating: 0
  Plant response rating, Corn: 40
[20]
  Plant response rating, Ducksalad (0 to 100 scale, 0 is no effect, 100 is complete control): 85
Soybean (Glycine max) [21]; [27]
  Plant response rating, Soybean: 50
Soybean (Glycine max) [21]; [28]
  Plant response rating, Soybean: 60
[22]
  Goosegrass plant response rating: 0
  Plant response rating, Goosegrass: 30
Soybean (Glycine max) [23]
  Soybean plant response rating: 10
  Plant response rating, Soybean: 60
[24]; [27]
  Plant response rating, Ryegrass, Italian: 40
[24]; [28]
  Plant response rating, Ryegrass, Italian: 100
[25]; [27]
  Plant response rating, Blackgrass: 0
[25]; [28]
  Plant response rating, Blackgrass: 70

## Cc1cc(C)c(N2Cc3cccc(Br)c3C2=O)cc1NS(=O)(=O)Cl [Compound 415]
[1]
  Galium plant response rating: 60
  Plant response rating, Galium: 90
[2]
  Oat, Wild plant response rating: 10
  Plant response rating, Oat, Wild: 30
[3]
  Foxtail, Giant plant response rating: 0
  Plant response rating, Foxtail, Giant: 30
[4]; [30]
  Plant response rating, Oat, Wild: 80
[5]
  Horseweed plant response rating: 60
Corn (Zea mays) [6]; [27]
  Plant response rating, Corn: 0
Corn (Zea mays) [6]; [28]
  Plant response rating, Corn: 80
[7]
  Ragweed plant response rating: 30
  Plant response rating, Ragweed: 70
[8]; [30]
  Plant response rating, Pigweed, Palmer: 60
[9]; [30]
  Plant response rating, Wheat: 50
[10]; [30]
  Plant response rating, Ragweed: 90
[11]
  Pigweed, Palmer plant response rating: 0
  Plant response rating, Pigweed, Palmer: 20
[12]; [27]
  Plant response rating, Foxtail, Giant: 80
[12]; [30]
  Plant response rating, Foxtail, Giant: 90
[13]
  Plant response rating, Barnyardgrass (0 to 100 scale, 0 is no effect, 100 is complete control): 85
[14]; [27]
  Plant response rating, Goosegrass: 90
[14]; [30]
  Plant response rating, Goosegrass: 100
Kochia (Bassia scoparia) [15]
  Kochia plant response rating: 40
  Plant response rating, Kochia: 70
Kochia (Bassia scoparia) [16]; [27]
  Plant response rating, Kochia: 10
Kochia (Bassia scoparia) [16]; [30]
  Plant response rating, Kochia: 60
Rice (Oryza sativa)
  Plant response rating, Rice (0 to 100 scale, 0 is no effect, 100 is complete control): 10
[17]
  Wheat plant response rating: 20
  Plant response rating, Wheat: 70
[18]
  Ryegrass, Italian plant response rating: 0
  Plant response rating, Ryegrass, Italian: 60
Corn (Zea mays) [19]
  Corn plant response rating: 0
  Plant response rating, Corn: 50
[20]
  Plant response rating, Ducksalad (0 to 100 scale, 0 is no effect, 100 is complete control): 65
[26]; 31 g ai/ha, postemergence
  Blackgrass plant response rating: 0
[26]; [29]
  Plant response rating, Blackgrass: 40
Soybean (Glycine max) [21]; [30]
  Plant response rating, Soybean: 0
[22]
  Goosegrass plant response rating: 70
  Plant response rating, Goosegrass: 90
Soybean (Glycine max) [23]
  Soybean plant response rating: 10
  Plant response rating, Soybean: 30
[24]; [30]
  Plant response rating, Ryegrass, Italian: 70
